From patent US20170071840A1, “POLYPHENOL/FLAVONOID COMPOSITIONS AND METHODS OF FORMULATING ORAL HYGIENIC PRODUCTS” (VIZURI HEALTH SCIENCES LLC, priority 2015, published 2017)

Key:
Solubility in water = format: physicochemical; settings: 20° C.
[1] = Solubility in PS80 via the thermal processing method; format: physicochemical
Description: Apigenin/Polysorbate 80 (PS80) formulations can be made as follows: • Apigenin powder and PS80 are mixed in the ratio from about 5 to 10 wt. % of apigenin to 95 to 90 wt. % PS80.
All solubility tests were conducted with 20 ml of PS80 contained within 80 ml Pyrex glass beakers.

[2] = Solubilization in Listerine mouth rinse; format: physicochemical
Description: 100 Grams of the Listerine® Resveratrol Containing Mouth Rinse Formulation was Prepared as Follows: • 1. 98.4 grams of the Listerine® caramel colored mouth rinse was added to a 300 ml Pyrex glass beaker. The pH of the Listerine® caramel colored mouth rinse was initially determined via pH indicator strips to be decidedly acidic at approximately 4.5. • 2. 1.2 grams of Resveratrol powder was added to the solution of Step 1. • 3. About 0.2 grams of fine NaOH crystals were added to the mixture from Step 2 and thoroughly mixed. A uniformly caramel colored blend resulted with a measured pH of ˜10. […] The pH of the mixture from Step 3 was adjusted to a pH 6.5 by the addition of about 0.2 grams of citric acid crystals. A transparent solution resulted with a resveratrol concentration of 1.2 mg/ml.
• 1. 98.6 grams of the Listerine® caramel colored mouthrinse was added to a 300 ml Pyrex glass beaker. The pH of the Listerine® caramel colored mouthrinse was initially determined via pH indicator strips to be decidedly acidic at approximately 4.5. • 2. 1.2 grams of Luteolin powder was added to the solution of Step 1. • 3. About 0.2 grams of fine NaOH crystals were added to the mixture from Step 2 and thoroughly mixed. A uniformly caramel colored blend resulted with a measured pH of ˜10. […] The pH of the mixture from Step 2 was adjusted to a pH 8 by the addition of about 0.2 grams of citric acid crystals. […]

[3] = Heat solubilization in Kolliphor RH-40 / Polysorbate 80; format: physicochemical; settings: curcumin as co-solubilizer
From the text: Heat Solubilization of 10% curcumin and 4% apigenin in Kolliphor RH-40 (formerly Cremophor)
Heat Solubilization of 10% Curcumin and 4% Apigenin in Polysorbate 80

[4] = Saliva levels of apigenin in chronic 1% apigenin toothpaste users (Example 12); format: in vivo, human
Description: Two subjects who have used PeroxiCare® with apigenin at a 1% concentration on a chronic basis provided saliva samples at:
Saliva was collected at each time point in 50 ml Falcon tubes and immediately transferred to a freezer. All samples were transported to Tufts University within 24 hours of collection. Apigenin in saliva was quantified using high performance liquid chromatograph (HPLC) with electrochemical detection (ECD). Apigenin in 1 ml saliva was extracted using 3 ml acetonitrile. After 2 min of rigorous vortexing, the mixture was spun at 2,000 rpm for 15 min at 4° C. Supernatant was dried under N2 gas, reconstituted with mobile phase A, and analyzed for apigenin with HPLC-ECD. The limit of quantification (LOQ) for apigenin and EGCG in this assay is 15 and 25 ng/ml saliva, respectively.

[5] = pH for stable aqueous microemulsion; format: physicochemical; settings: nonionic surfactants Polysorbate 80 and Cremophor/Kolliphor RH-40
From the text: In one embodiment, a flavonoid/polyphenol microemulsion can be made as follows: • The mixing of a flavonoid/polyphenol with an alkali metal component (e.g., alkali metal hydroxide(s) and/or alkaline metal salt(s)) to form an alkali metal flavonoid/polyphenol salt within an aqueous solution. • Adding a surfactant in the ratio from about 5 to 20 wt. % of the flavonoid/polyphenol to 95 to 80 wt. % of a surfactant; preferable a nonionic surfactant. • This mixture is thoroughly stirred to form a uniform clear solution. • Adjusting (e.g., acidifying) the alkali metal flavonoid/polyphenol salt with an agent (e.g., an acidic agent such as acetic acid and/or hydrochloric acid) to a pH level required to form a clear and stable microemulsion.
Stable microemulsions with apigenin and the nonionic surfactants, Polysorbate 80 and Cremophor/Kolliphor RH-40, were achieved provided a pH level of 8.0 to 8.5 was maintained. For luteolin, it as determined that a pH of 7 was required to maintain a stable aqueous microemulsion; and for resveratrol, a pH of >4.5 to 7.5.

With `O.Oc1cc(O)c2c(c1)O[C@H](c1ccc(O)c(O)c1)[C@@H](O)C2` [Catechin] the “Water Solubility” value (Solubility in water) was roughly 5 mg/mL and the “PS80 Solubility” value ([1]; 20° C., thermal processing, not the maximum solubility levels) was 50 mg/mL.
With `Oc1ccc(C=Cc2cc(O)cc(O)c2)cc1` [resveratrol] the “concentration in transparent solution” value ([2]; Listerine mouth rinse, pH 6.5) was 1200 µg/mL.
In the case of `O=c1cc(-c2ccc(O)cc2)oc2cc(O)cc(O)c12` [Apigenin, 4′,5,7,-trihydroxyflavone], the “apigenin solubilized in PS 80” value [3] is reported as “more than 5%”, the “apigenin solubilized in RH-40” value [3] is reported as “more than 5%” and the “persistence of apigenin levels in saliva post-brushing” value [4] is reported as “at least 8 hours”. For the same compound, the “stable apigenin concentrate in PS80” value ([1]; 5.0 wt. % apigenin in PS80, heated, cooled to ambient) was 50 mg/mL.
In the case of `O=c1cc(-c2ccc(O)c(O)c2)oc2cc(O)cc(O)c12` [luteolin, 3′,4′,5,7-tetrahydroxyflavone], the “concentration in transparent solution” value ([2]; Listerine mouthrinse, pH 8) is reported as 1500 µg/mL and the “pH level for stable microemulsion” value [5] is reported as 7.
